Series [1] addresses CDK7/Cyclin H/MNAT1 (Homo sapiens, UniProt P50613). Description: Inhibition of CDK7/Cyclin H/MNAT1 kinase activity (ADP-Glo). Format: biochemical. To be noted: mean value from several measurements; read-out: IC50 CDK7/Cyclin H/MNAT. As for the experimental part: (§1) Measurements were carried out in a 5 μl reaction volume using a 384-well plate (Corning Inc., order no. 4513). The analyzed substances were titrated from 50 μM in increments of 4 at 11 concentration points in a normal strength kinase buffer A (Thermo Fisher Scientific Inc, cat. no. PV3189) supplemented with DTT (Sigma, orde. no. 646563-10X.5ML) and prepared with water (Panreac, order no. 701074). Kinase was diluted in an analogous buffer, mixed with test compounds in plate wells and preincubated for 10 minutes at 25° C. Following incubation, a mixture of reaction substrate (CDKtide (SignalChem, order no. C06-58) or Histone H1 (SignalChem, order no. H10-54N) or PDKtide (SignalChem, order no. P10-58) and ATP (SignalChem, order no. V915B) prepared on a normal strength kinase buffer A was added. 1% solution of dimethyl sulfoxide (DMSO) (Sigma-Aldrich, order no. D2438) in the reaction volume was used as a negative control. The final concentrations of all reaction components are shown in Table 5. The plate was centrifuged at 400 rcf (Eppendorf, 5804 R) for 1 minute and incubated for 40-60 minutes at 25° C. The amount of ATP consumed in the kinase reaction was then measured using the ADP-Glo™ detection system. Luminescence signal was measured using Spark 20M tablet multifunction reader (Tecan Group Ltd, Switzerland). IC50 value was calculated using Magellan 7.2 (Tecan Group Ltd, Switzerland) by approximating experimental points by four-parameter model with the optimization by Levenberg-Marquardt:
(§2) [formula] • where A is the upper asymptote; D is the lower asymptote; C is IC50, half-maximal inhibitory concentration of kinase, nM; B is the curvature (slope).

The target in series [2] is CDK2/Cyclin A (Homo sapiens, UniProt P24941). Nature of the series: Inhibition of CDK2/Cyclin A kinase activity (ADP-Glo). Format: biochemical. To be noted: mean value from several measurements; read-out: IC50 CDK2/Cyclin A. As for the experimental part: as §1, §2
(ADP-Glo first removes unused ATP, then detects ADP through luciferase.)

Series [3] deals with MDA-MB-468 (triple negative breast cancer). Description: Antiproliferative assay on MDA-MB-468 cells (AlamarBlue, 96 h). Format: cell-based. As to conditions: Homo sapiens, mean value from several measurements. As for the experimental part:
The antiproliferative activity of CDK7 inhibitors according to the present invention was evaluated in a cell test using continuous cell cultures: MDA-MB-468 (triple negative breast cancer, ATCC® HTB-132™) and NCl-H82 (small cell lung cancer, ATCC® HTB-175™) using a viable AlamarBlue dye (Thermo Fisher Scientific Inc, order no. DAL1100). The cells were grown in DMEM (PanEco, order no. C330π) and RPMI-1640 (PanEco, order no. C330π), respectively. The basal growth medium was enriched with L-glutamine at a concentration of 2 mM (PanEco, order no. Φ032) and 10% fetal bovine serum (Gibco, order no. 16140-071). The night before measurement, MDA-MB-468 adherent cells were detached from plastic with a solution of trypsin-EDTA (PanEco, order no. Π039π), the solution was then inactivated by a DMEM complete medium, centrifuged at 1000 RPM (Eppendorf, 5804 R), a suspension of cells was prepared in a DMEM complete medium, introduced into 96-well culture plates (Corning Inc, order no. 3599) at 8×10^3 cells in 100 μl of medium per well. The next day, test compounds were dissolved in DMSO and diluted with a DMEM complete medium to a final concentration ranging from 50 μM to 10 pM. Diluted compounds in a volume of 50 μl were introduced into the plate wells with cells in triplicates (the final concentration of DMSO was no more than 1%) and incubated at 37° C. in an incubator with 5% CO2 for 96 hours. NCl-H82 suspension cell line was prepared on the day of the analysis. 10×10^3 cells in 100 μl of an RPMI-1640 complete medium were added to each well of a 96-well plate. The procedure for sample dilution is as described above. Cells with test compounds were incubated at 37° C. in an incubator with 5% CO2 for 120 hours. Following incubation, […] of AlamarBlue reagent (Thermo Fisher Scientific Inc., order no. DAL1100) was added to the wells, the contents of the plates were stirred in an orbital shaker (Biosan, Latvia), then further incubated for 5.5-6 hours at 37° C. in an incubator with 5% CO2. The number of viable cells was detected using the Infinite M200Pro microplate spectrophotometer (Tecan Group Ltd, Switzerland) by way of measuring a fluorescent signal at an excitation wavelength (λEx) of 540 nm and an emission wavelength (λEm) of 590 nm.
IC50 value was calculated using the Magellan software (Tecan Group Ltd, Switzerland) by approximating experimental points by four-parameter model with the optimization by Levenberg-Marquardt: […]
On the technique in general: The colour change of resazurin is a common sign of viable cells or microbes.

Series [4] in a line: General cytotoxicity on primary differentiated HepaRG cells (72 h). Format: cell-based. To be noted: human, general toxicity, mean value from several measurements. An excerpt: General cytotoxicity of CDK7 inhibitors according to the present invention was investigated using primary differentiated HepaRG cells (Biopredic Int, order no. HPR101). A week before the measurement, the cells were thawed and maintained in Basal hepatic cell medium (Biopredic Int, order no. MIL700079) supplemented with HepaRG maintenance/metabolism medium supplement with antibiotics (Biopredic Int, order no. ADD620C). The medium in vials with cells was changed every 2-3 days. The night before the test, the cells were plated in wells of 96-well plates (Corning Inc., order no. 3599) at 25×10^3 cells in 100 μl of medium per well. The next day, test compounds were introduced into plate wells with cells, untitrated at a concentration ranging from 200 μM to 0.2 nM, and incubated for 72 hours. Cell viability was assessed as described above.

The target in series [5] is CDK9/Cyclin K (Homo sapiens, UniProt P50750). Nature of the series: Inhibition of CDK9/Cyclin K kinase activity (ADP-Glo). Format: biochemical. As to conditions: mean value from several measurements; read-out: IC50 CDK9/Cyclin K. As for the experimental part:
as §1, §2

pIC50: −log10 of the molar value.

CDK9/Cyclin K, sequence (P50750 whole entry): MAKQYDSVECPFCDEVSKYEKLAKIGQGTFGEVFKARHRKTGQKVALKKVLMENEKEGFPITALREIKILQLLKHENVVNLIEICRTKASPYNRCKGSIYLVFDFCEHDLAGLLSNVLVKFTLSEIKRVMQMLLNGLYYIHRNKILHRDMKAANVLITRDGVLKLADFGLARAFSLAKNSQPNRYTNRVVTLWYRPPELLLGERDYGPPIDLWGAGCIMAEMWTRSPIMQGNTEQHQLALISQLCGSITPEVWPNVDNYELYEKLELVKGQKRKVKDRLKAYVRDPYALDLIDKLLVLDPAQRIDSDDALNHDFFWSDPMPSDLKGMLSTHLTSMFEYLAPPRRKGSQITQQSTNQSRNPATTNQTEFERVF
CDK9/Cyclin K, sequence (O75909 whole entry partner): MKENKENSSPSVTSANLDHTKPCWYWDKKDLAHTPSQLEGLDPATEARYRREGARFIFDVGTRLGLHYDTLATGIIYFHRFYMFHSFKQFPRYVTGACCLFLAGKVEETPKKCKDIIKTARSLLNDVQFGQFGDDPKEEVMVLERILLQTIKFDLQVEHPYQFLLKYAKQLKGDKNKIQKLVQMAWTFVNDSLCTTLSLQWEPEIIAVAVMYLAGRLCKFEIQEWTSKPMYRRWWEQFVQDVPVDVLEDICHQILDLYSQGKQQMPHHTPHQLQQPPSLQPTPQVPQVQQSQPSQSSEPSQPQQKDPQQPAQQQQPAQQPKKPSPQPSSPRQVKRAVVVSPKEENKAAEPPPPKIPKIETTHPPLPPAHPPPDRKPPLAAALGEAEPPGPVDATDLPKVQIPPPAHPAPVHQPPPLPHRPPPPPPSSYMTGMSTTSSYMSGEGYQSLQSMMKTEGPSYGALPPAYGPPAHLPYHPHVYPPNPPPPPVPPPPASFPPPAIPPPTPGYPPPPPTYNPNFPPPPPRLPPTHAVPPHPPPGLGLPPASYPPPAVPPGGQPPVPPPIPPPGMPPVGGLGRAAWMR
CDK7/Cyclin H/MNAT1, sequence (P50613 whole entry): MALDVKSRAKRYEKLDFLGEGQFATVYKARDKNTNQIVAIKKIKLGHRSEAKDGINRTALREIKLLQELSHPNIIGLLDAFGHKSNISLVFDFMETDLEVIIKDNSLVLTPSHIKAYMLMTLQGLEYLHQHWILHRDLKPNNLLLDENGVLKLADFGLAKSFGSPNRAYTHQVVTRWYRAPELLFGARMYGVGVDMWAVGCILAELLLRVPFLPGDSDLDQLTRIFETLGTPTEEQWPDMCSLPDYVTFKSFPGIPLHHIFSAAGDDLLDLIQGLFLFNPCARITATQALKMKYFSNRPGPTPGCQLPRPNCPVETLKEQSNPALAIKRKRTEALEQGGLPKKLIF
CDK7/Cyclin H/MNAT1, sequence (P51946 whole entry partner): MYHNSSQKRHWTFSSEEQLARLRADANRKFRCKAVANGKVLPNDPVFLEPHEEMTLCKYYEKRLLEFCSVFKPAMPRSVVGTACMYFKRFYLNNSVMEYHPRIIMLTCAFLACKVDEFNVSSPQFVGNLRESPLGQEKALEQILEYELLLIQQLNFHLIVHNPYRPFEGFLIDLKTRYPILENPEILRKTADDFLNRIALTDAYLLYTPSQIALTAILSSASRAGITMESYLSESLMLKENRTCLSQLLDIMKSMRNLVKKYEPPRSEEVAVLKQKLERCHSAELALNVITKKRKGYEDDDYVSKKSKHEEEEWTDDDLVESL
CDK7/Cyclin H/MNAT1, sequence (P51948 whole entry partner): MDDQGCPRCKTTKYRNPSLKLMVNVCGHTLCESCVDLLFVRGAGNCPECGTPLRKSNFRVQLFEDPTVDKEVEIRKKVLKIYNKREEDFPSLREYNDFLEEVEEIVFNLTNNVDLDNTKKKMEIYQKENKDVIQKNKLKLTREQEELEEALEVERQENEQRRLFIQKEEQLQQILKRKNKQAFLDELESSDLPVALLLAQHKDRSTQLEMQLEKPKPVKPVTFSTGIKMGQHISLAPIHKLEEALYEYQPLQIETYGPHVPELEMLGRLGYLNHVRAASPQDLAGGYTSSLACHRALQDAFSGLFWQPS

In the case of `O=c1[nH]cc(-c2nc(N[C@H]3CCCNC3)ncc2C(F)(F)F)c2ccccc12` [CDK7_921, 4-(2-{[(3S)-piperidin-3-yl]amino}-5-(trifluoromethyl)pyrimidin-4-yl)-1,2-dihydroisoquin-olin-1-one], the pIC50 in series [1] was 7.30 to 8.30.
For `CN(C)C(=O)c1c[nH]cc1-c1nc(N[C@H]2CCCNC2)ncc1C(F)(F)F` [CDK7_991, N,N-dimethyl-4-(2-{[(3S)-piperidin-3-yl]amino}-5-(trifluoromethyl)py-rimidin-4-yl)-1H-pyrrole-3-carboxamide], the pIC50 in series [1] is under 6.70.
Broadly, the CC50 is the concentration that lowers cell viability or growth by half. Lower therefore signals harm at low concentration. Turning to `FC(F)(F)c1cnc(N[C@H]2CCCNC2)nc1-n1cnc2ccccc21` [CDK7_810, 4-(1H-1,3-benzodiazol-1-yl)-N-[(3S)-piperidin-3-yl]-5-(trifluoromethyl)py-rimidin-2-amine], the figures for the pIC50 in series [2], in series [1] and in series [3] were under 6.70, 7.30 to 8.30 and under 6.00, respectively. Further, the CC50 at 72 h in series [4] is over 2 µM.
For `CP(C)(=O)c1ccccc1Oc1nc(N[C@H]2CCCNC2)ncc1C(F)(F)F` [CDK7_897, 4-[2-(dimethylphos-phoryl)phenoxy]-N-[(3S)-piperidin-3-yl]-5-(trifluoromethyl) pyrimidin-2-amine], in series [2], the pIC50 is under 6.70. The cytotoxic concentration (CC50) at 72 h in series [4] was over 2 µM.
For the compound `NS(=O)(=O)c1cccc(Nc2nc(N[C@H]3CCCNC3)ncc2C(F)(F)F)c1` [CDK7_891, 3-[(2-{[(3S)-piperidin-3-yl]amino}-5-(trifluoromethyl)pyrimidin-4-yl)amino] benzene-1-sulfonamide], the pIC50 in series [2] is under 6.70; in series [1] it was 7.30 to 8.30; in series [3] it was 6.00 to 7.00.
As to `FC(F)(F)c1cnc(N[C@H]2CCCNC2)nc1Oc1cccc2cccnc12` [CDK7_830, N-[(3S)-piperidin-3-yl]-4-(quinolin-8-yloxy)-5-(trifluoromethyl) pyrimidin-2-amine], in series [3], the pIC50 was under 6.00. In series [4], this compound gave a CC50 at 72 h of over 2 µM.
`CC(=O)Nc1ccccc1Nc1nc(N[C@H]2CCCNC2)ncc1C(F)(F)F` [CDK7_898, N-{2-[(2-{[(3S)-piperidin-3-yl]amino}-5-(trifluoromethyl)pyrimidin-4-yl)amino]phenyl} acetamide]: the pIC50 in series [2] was under 6.70; in series [1] it was 7.30 to 8.30; in series [3] it was 6.00 to 7.00. This compound returned a CC50 at 72 h in series [4] of over 2 µM.
Consider `FC(F)(F)c1cnc(N[C@H]2CCCNC2)nc1Oc1cccc2c1NCCC2` [CDK7_829, N-[(3S)-piperidin-3-yl]-4-(1,2,3,4-tetrahydroquin-olin-8-yloxy)-5-(trifluoromethyl) pyrimidin-2-amine], for which the pIC50 in series [3] is under 6.00. For the same compound, the CC50 at 72 h in series [4] was over 2 µM.
With `FC(F)(F)c1cnc(N[C@H]2CCCNC2)nc1-n1ccc2ccccc21` [CDK7_809, 4-(1H-indol-1-yl)-N-[(3S)-piperidin-3-yl]-5-(trifluoromethyl)py-rimidin-2-amine], the pIC50 in series [2] was under 6.70; in series [1] it was 7.30 to 8.30; in series [3] it was under 6.00. Also, in series [4], the CC50 at 72 h was over 2 µM.
`O=C1CN(c2nc(N[C@H]3CCCNC3)ncc2C(F)(F)F)c2ccccc2N1` [CDK7_900, 4-(2-{[(3S)-piperidin-3-yl]amino}-5-(trifluoromethyl)pyrimidin-4-yl)-1,2,3,4-tetrahydroquin-oxazolin-2-one] yielded a CC50 at 72 h in series [4] of over 2 µM.
For `CN1CCc2c(-c3nc(N[C@H]4CCCNC4)ncc3C(F)(F)F)c[nH]c2C1=O` [CDK7_843, 6-methyl-3-(2-{[(3S)-piperidin-3-yl]amino}-5-(trifluoromethyl)pyrimidin-4-yl)-1H,4H,5H,6H, 7H-pyrrolo[2,3-c]pyridin-7-one], the figures for the pIC50 in series [5], in series [2] and in series [1] were under 6.70, under 6.70 and 7.30 to 8.30, respectively.
Turning to `Nc1ccccc1Nc1nc(N[C@H]2CCCNC2)ncc1C(F)(F)F` [CDK7_550, N4-(2-aminophenyl)-N2-[(3S)-piperidin-3-yl]-5-(trifluoromethyl) pyrimidine-2,4-diamine], the values for the pIC50 in series [2], in series [1] and in series [3] were under 6.70, 6.70 to 7.30 and under 6.00, respectively. The same compound had a CC50 at 72 h in series [4] of over 2 µM.
With `CN1CCC[C@H](Nc2ncc(C(F)(F)F)c(-c3c[nH]c(C(=O)N(C)C)c3)n2)C1` [CDK7_1019], the results for the pIC50 in series [5], in series [2] and in series [1] were under 6.70, under 6.70 and 7.30 to 8.30, respectively. Moreover, the half-maximal cytotoxic concentration (CC50) at 72 h in series [4] is over 2 µM.
As to `CP(C)(=O)c1cccc(Nc2nc(N[C@H]3CCCNC3)ncc2C(F)(F)F)c1` [CDK7_888, N4-[3-(dimethylphos-phoryl)phenyl]-N2-[(3S)-piperidin-3-yl]-5-(trifluoromethyl) pyrimidine-2,4-diamine], the pIC50 is under 6.70 in series [2], 7.30 to 8.30 in series [1] and under 6.00 in series [3]. The same compound registered a CC50 at 72 h in series [4] of over 2 µM.
`FC(F)(F)c1cnc(N[C@H]2CCCNC2)nc1Cc1ccccc1` [CDK7_766, 4-benzyl-N-[(3S)-piperidin-3-yl]-5-(trifluoromethyl) pyrimidin-2-amine]: the pIC50 in series [2] was under 6.70; in series [1] it was 6.70 to 7.30; in series [3], under 6.00. Moreover, the CC50 at 72 h in series [4] was over 2 µM.
On to `FC(F)(F)c1cnc(N[C@H]2CCCNC2)nc1Oc1ccccc1` [CDK7_754, 4-phenoxy-N-[(3S)-piperidin-3-yl]-5-(trifluoromethyl) pyrimidin-2-amine], for which the pIC50 in series [2] is under 6.70; in series [1] it was 7.30 to 8.30; in series [3] it was under 6.00. Besides, the CC50 at 72 h in series [4] is over 2 µM.
In the case of `Cn1c(-c2cc(-c3nc(N[C@H]4CCCNC4)ncc3C(F)(F)F)c[nH]2)nc2ccccc21` [CDK7_1124, 4-[5-(1-methyl-1H-1,3-benzodiazol-2-yl)-1H-pyrrol-3-yl]-N-[(3S)-piperidin-3-yl]-5-(trifluoromethyl)py-rimidin-2-amine], the pIC50 was under 6.70 in series [5], under 6.70 in series [2] and 7.30 to 8.30 in series [1]. In series [4], this compound yielded a CC50 at 72 h of over 2 µM.

Source of the values: US20260137698A1, “CYCLIN-DEPENDENT KINASE 7 INHIBITORS” (JOINT STOCK COMPANY «BIOCAD», priority 2022, published 2026).
